We go through four molecules from paper PMC7473988 (Journal of Experimental Pharmacology, 2020).

“And” between values parts separate entries of the source, which are not always exact repeats. Equal entries are not always repeated. Structures can show the parent of a compound that is named as a salt.

Some targets named below: dopaminergic receptor D3 (Homo sapiens, UniProt P35462); dopaminergic receptor D1 (Homo sapiens, UniProt P21728); 5-HT1D (Rattus norvegicus, UniProt P28565); 5-HT1A (Homo sapiens, UniProt P08908); 5-HT6 (Homo sapiens, UniProt P50406); ADRβ1 (Homo sapiens, UniProt P08588); ADRα2B (Homo sapiens, UniProt P18089); histaminic receptor H1 (Homo sapiens, UniProt P35367); ADRα2A (Homo sapiens, UniProt P08913); ADRα1A (Homo sapiens, UniProt P35348); ADRα2C (Homo sapiens, UniProt P18825).

The target of assay [1] is T1, SERT (Homo sapiens, UniProt P31645). Particulars: cited from earlier work.
The subject of a further assay is neuronal receptors. Particulars: binding affinity study; cited from earlier work.
Assay [2] has as its system 5-HT in rat and mouse PFC. Particulars: cited from earlier work.
Assay [3] deals with 5-HT2C. Conditions: at all concentrations except at 100 mg/day dose.
Assay [4] concerns the target T2, 5-HT7 (Homo sapiens, UniProt P34969). Put plainly: cell-based. Conditions: read-out: antagonistic activity at 5-HT7, inhibition.
Assay [5] deals with T3, 5-HT2A (Homo sapiens, UniProt P28223). The assay can be described thus: cell-based.
Assay [6] concerns the target T2, 5-HT7. Put plainly: Cerep Bioprint radioligand binding assay: 5-HT7. Particulars: read-out: percent inhibition of the binding of a radiolabeled ligand.
Assay [7] deals with 5-HT1B (Homo sapiens, UniProt P28222).
For assay [8], the target named is muscarinic cholinergic receptor M2 (Homo sapiens, UniProt P08172). The assay can be described thus: Cerep Bioprint radioligand binding assay: M2. Conditions: read-out: percent inhibition of the binding of a radiolabeled ligand.
A further assay has as its target DA receptor D1 (Homo sapiens, UniProt P21728). Put plainly: Cerep Bioprint radioligand binding assay: D1. Conditions: read-out: percent inhibition of the binding of a radiolabeled ligand.
In assay [9] the target is muscarinic cholinergic receptor M4 (Homo sapiens, UniProt P08173). The assay can be described thus: Cerep Bioprint radioligand binding assay: M4. Conditions: read-out: percent inhibition of the binding of a radiolabeled ligand.
In a further assay the target is ADRβ2 (Homo sapiens, UniProt P07550). Put plainly: cell-based.
Assay [10] addresses monoamine oxidase A (MAO-A) (Rattus norvegicus, UniProt P21396). Put plainly: Cerep Bioprint panel assay: MAO-A. Particulars: read-out: percent inhibition (activity towards MAO-A).
The next assay concerns the target His receptor H1 (Homo sapiens, UniProt P35367). The assay can be described thus: Cerep Bioprint radioligand binding assay: H1. Particulars: read-out: percent inhibition of the binding of a radiolabeled ligand.
Assay [11] concerns the target cholinergic muscarinic receptor M4 (Homo sapiens, UniProt P08173).
A further assay deals with GABA transporter (GAT). The assay can be described thus: Cerep Bioprint radioligand binding assay: GAT. Particulars: viloxazine 10 µM.
Assay [12] concerns the target T4, 5-HT2B (Homo sapiens, UniProt P41595). Put plainly: Cerep Bioprint radioligand binding assay: 5-HT2B.
The target of another assay is His receptor H2 (Homo sapiens, UniProt P25021). Put plainly: Cerep Bioprint radioligand binding assay: H2. Conditions: read-out: percent inhibition of the binding of a radiolabeled ligand.
In assay [13] the target is muscarinic cholinergic receptor M1 (Homo sapiens, UniProt P11229). Put plainly: Cerep Bioprint radioligand binding assay: M1. Conditions: read-out: percent inhibition of the binding of a radiolabeled ligand.
The target of assay [14] is cholinergic muscarinic receptor M3 (Homo sapiens, UniProt P20309).
The next assay addresses DAT (Homo sapiens, UniProt Q01959). The assay can be described thus: Cerep Bioprint radioligand binding assay: DAT. Conditions: read-out: percent inhibition (activity towards DAT).
Assay [15] addresses T2, 5-HT7. Particulars: concentrations up to 100 µM.
Assay [16] relates to extracellular neurotransmitter levels in the PFC, Acb, and Amg. Particulars: viloxazine 50 mg/kg IP, compared to baseline or vehicle.
The target in assay [17] is T5, 5-HT2C (Homo sapiens, UniProt P28335). The assay can be described thus: biochemical. Particulars: read-out: percent inhibition of the binding of a radiolabeled ligand.
A further assay deals with DA receptor D2S (Homo sapiens, UniProt P14416). Put plainly: Cerep Bioprint radioligand binding assay: D2S. Particulars: read-out: percent inhibition of the binding of a radiolabeled ligand.
In assay [18] the target is muscarinic cholinergic receptor M3 (Homo sapiens, UniProt P20309). Put plainly: Cerep Bioprint radioligand binding assay: M3. Particulars: read-out: percent inhibition of the binding of a radiolabeled ligand.
Assay [19] concerns the target NET (Rattus norvegicus, UniProt Q63380). The assay can be described thus: biochemical. Particulars: IC50, inhibition of [3H]-NE uptake (NET), rat hypothalamic synaptosomes.
The test system of assay [20] is 5-HT1B. Particulars: viloxazine 10 µM.
The target in assay [21] is cholinergic muscarinic receptor M1 (Homo sapiens, UniProt P11229).
For assay [22], the target named is T5, 5-HT2C. Put plainly: cell-based. Conditions: CHO, read-out: Emax, agonistic activity towards 5-HT2C.
In the next assay the target is DA receptor D3 (Homo sapiens, UniProt P35462). Put plainly: Cerep Bioprint radioligand binding assay: D3. Conditions: read-out: percent inhibition of the binding of a radiolabeled ligand.
Assay [23] concerns the target choline transporter (CHT-1) (Homo sapiens, UniProt Q9GZV3). The assay can be described thus: Cerep Bioprint radioligand binding assay: CHT-1. Particulars: viloxazine 10 µM.
Assay [24] relates to 5-HT2B. Particulars: at all concentrations, clinical doses of 100, 200, 400, and 600 mg/day.
The target of assay [25] is adrenergic alpha1A (ADRα1A) receptor (Homo sapiens, UniProt P35348). Put plainly: Cerep Bioprint radioligand binding assay: ADRα1A. Particulars: read-out: percent inhibition of the binding of a radiolabeled ligand.
For assay [26], the target named is dopaminergic receptor D2S (Homo sapiens, UniProt P14416).
Assay [27] deals with T3, 5-HT2A. Conditions: concentrations up to 300 µM.
Assay [28] deals with NET (Homo sapiens, UniProt P23975). Put plainly: Cerep Bioprint radioligand binding assay: NET. Particulars: read-out: percent inhibition of the binding of a radiolabeled ligand.
In a further assay the target is ADRα1B (Homo sapiens, UniProt P35368). The assay can be described thus: cell-based.
The target of assay [29] is adrenergic alpha1B (ADRα1B) receptor (Homo sapiens, UniProt P35368). The assay can be described thus: Cerep Bioprint radioligand binding assay: ADRα1B. Conditions: read-out: percent inhibition of the binding of a radiolabeled ligand.
Assay [30] concerns the target T1, SERT. The assay can be described thus: Cerep Bioprint radioligand binding assay: SERT. Particulars: viloxazine 10 µM.
The target of assay [31] is T4, 5-HT2B. Put plainly: cell-based.
The next assay deals with DA in the striatum. Conditions: freely moving spontaneously hypertensive rats; cited from earlier work.

T4 sequence (P41595 whole entry): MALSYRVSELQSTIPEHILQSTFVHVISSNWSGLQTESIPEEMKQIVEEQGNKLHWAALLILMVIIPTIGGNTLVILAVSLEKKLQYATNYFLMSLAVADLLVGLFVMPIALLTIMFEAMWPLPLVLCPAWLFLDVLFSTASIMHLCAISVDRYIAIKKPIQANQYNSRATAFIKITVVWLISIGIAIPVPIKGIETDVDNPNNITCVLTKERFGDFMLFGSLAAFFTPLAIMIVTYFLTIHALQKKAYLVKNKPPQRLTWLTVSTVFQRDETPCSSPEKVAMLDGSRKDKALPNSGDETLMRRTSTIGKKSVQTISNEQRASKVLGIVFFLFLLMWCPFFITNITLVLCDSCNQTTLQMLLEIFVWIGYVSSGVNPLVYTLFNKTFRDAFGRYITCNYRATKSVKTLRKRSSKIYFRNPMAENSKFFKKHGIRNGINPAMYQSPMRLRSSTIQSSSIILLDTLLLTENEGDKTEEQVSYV
T1 sequence (P31645 whole entry, species assumed): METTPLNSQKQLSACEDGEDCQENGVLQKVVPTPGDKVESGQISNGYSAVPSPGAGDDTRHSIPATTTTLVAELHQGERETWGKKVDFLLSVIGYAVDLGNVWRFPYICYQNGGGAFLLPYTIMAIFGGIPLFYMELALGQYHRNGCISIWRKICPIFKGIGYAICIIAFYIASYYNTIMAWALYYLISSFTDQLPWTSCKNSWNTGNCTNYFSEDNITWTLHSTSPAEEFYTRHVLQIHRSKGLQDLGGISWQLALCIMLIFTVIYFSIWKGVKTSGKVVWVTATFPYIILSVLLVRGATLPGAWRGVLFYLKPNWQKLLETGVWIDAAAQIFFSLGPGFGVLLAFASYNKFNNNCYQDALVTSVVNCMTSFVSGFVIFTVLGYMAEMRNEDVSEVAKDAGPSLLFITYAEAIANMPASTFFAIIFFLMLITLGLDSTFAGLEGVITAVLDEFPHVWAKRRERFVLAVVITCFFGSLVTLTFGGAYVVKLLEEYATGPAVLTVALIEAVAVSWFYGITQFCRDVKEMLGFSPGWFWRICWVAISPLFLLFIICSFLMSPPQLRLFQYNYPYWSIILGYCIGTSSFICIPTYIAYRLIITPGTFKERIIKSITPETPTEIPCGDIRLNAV
Chain of cholinergic muscarinic receptor M4 (P08173 whole entry): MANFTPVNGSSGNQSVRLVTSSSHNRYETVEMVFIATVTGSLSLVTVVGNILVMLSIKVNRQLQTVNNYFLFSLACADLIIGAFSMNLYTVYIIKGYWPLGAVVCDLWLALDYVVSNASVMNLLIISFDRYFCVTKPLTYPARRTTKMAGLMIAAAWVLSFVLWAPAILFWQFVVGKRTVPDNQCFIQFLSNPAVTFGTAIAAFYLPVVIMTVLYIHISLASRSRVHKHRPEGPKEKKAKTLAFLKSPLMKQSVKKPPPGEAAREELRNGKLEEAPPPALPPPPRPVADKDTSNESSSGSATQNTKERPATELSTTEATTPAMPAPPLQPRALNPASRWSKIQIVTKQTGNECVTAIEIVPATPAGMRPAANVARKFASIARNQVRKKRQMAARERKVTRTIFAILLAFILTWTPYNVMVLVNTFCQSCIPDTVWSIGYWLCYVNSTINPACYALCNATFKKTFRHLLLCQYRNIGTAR
Chain of cholinergic muscarinic receptor M3 (P20309 whole entry): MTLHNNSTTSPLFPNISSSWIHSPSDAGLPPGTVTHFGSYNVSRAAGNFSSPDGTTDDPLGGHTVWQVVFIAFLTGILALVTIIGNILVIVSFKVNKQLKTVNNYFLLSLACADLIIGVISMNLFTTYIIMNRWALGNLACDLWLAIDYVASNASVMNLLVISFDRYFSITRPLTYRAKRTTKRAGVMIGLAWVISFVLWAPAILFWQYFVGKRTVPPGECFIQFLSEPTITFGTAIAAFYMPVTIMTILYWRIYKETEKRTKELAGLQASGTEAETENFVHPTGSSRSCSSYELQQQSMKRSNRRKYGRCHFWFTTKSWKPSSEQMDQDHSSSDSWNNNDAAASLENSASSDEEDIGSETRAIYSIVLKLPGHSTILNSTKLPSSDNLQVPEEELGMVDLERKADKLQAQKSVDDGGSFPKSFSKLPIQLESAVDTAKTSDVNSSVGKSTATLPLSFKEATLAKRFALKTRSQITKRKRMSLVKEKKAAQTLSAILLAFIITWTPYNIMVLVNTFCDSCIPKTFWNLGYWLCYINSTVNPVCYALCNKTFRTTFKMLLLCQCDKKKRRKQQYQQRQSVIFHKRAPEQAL
Chain of histaminic receptor H1 (P35367 whole entry): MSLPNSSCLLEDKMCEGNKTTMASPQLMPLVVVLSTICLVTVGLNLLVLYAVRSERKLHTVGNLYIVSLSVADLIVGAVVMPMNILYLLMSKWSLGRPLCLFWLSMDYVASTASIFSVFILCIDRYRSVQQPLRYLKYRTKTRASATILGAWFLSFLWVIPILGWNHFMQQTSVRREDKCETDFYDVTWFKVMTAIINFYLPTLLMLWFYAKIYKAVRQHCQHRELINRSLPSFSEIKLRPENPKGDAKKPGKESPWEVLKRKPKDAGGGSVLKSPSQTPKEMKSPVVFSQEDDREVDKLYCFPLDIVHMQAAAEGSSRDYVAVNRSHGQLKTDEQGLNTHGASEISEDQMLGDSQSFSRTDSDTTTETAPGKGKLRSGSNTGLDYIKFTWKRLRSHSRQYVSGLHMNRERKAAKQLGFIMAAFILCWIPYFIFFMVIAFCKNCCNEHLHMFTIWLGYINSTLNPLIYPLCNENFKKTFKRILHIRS
Chain of cholinergic muscarinic receptor M1 (P11229 whole entry): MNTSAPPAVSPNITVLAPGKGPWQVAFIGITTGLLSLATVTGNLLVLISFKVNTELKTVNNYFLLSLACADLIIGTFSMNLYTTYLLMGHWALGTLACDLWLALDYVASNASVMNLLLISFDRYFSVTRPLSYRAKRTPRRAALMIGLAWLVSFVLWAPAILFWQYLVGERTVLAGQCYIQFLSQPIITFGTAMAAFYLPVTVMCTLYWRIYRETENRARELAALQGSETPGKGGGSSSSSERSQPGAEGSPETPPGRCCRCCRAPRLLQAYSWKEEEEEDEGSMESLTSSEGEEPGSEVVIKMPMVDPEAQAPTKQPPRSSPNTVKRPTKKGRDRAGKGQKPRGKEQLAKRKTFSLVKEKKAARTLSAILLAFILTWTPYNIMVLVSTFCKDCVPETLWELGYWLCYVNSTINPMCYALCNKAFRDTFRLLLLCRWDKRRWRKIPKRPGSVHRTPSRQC
Chain of dopaminergic receptor D3 (P35462 whole entry): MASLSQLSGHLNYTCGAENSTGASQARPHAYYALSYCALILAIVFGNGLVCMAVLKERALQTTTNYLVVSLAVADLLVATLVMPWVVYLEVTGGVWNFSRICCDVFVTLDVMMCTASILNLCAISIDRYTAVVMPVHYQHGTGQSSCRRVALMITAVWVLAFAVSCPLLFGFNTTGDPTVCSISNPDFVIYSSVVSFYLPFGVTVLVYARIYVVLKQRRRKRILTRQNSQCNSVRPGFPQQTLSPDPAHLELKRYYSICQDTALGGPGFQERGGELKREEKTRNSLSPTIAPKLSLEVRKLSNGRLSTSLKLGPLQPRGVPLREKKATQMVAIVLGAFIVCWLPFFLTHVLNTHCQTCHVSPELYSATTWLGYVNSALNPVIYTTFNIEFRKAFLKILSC
T5 sequence (P28335 33-458): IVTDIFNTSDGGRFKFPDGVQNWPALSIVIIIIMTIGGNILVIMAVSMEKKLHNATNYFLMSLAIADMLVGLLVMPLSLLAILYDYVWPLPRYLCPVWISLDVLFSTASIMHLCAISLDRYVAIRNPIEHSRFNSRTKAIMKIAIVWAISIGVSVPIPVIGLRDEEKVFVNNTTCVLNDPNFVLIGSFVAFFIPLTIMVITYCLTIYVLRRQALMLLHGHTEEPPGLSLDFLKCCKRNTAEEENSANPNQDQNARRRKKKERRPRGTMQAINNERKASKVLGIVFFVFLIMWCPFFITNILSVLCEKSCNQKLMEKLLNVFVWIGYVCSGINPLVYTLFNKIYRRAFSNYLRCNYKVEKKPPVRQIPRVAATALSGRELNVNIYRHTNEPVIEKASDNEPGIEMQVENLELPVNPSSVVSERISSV
Chain of dopaminergic receptor D1 (P21728 whole entry): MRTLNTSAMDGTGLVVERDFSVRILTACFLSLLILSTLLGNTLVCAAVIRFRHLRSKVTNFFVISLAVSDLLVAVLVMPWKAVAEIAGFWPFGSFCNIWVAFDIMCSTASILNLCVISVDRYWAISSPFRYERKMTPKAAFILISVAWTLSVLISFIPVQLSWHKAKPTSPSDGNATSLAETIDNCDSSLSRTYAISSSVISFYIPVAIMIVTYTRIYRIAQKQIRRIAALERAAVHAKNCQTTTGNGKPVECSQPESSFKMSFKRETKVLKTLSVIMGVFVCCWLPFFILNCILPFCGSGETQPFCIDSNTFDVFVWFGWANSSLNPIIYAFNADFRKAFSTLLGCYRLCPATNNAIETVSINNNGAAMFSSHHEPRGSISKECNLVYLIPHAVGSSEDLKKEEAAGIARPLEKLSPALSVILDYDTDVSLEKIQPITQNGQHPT
Chain of dopaminergic receptor D2S (P14416 1-414 isoform P14416-2): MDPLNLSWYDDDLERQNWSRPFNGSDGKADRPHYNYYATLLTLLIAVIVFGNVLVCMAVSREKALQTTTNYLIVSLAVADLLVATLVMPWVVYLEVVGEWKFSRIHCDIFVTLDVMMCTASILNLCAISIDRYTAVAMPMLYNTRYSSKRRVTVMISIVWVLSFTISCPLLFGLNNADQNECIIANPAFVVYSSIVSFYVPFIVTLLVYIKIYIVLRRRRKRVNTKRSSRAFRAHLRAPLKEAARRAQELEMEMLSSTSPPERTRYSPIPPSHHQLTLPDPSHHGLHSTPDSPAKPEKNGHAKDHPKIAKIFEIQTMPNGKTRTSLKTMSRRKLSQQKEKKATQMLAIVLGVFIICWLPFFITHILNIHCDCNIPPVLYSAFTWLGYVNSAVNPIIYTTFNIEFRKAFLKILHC
Chain of muscarinic cholinergic receptor M4 (P08173 whole entry): as the sequence (P08173 whole entry) above
Chain of muscarinic cholinergic receptor M3 (P20309 whole entry): as the sequence (P20309 whole entry) above
Chain of His receptor H1 (P35367 whole entry): as the sequence (P35367 whole entry) above

As to `CNCC[C@@H](Oc1ccccc1C)c1ccccc1` [Atomoxetine, atomoxetine], on SERT [1], the SERT occupancy was above 85%. Also, the “affinity for neuronal receptors” value in the assay with neuronal receptors is “does not possess appreciable affinity”. The “effect on 5-HT in rat and mouse PFC by microdialysis” value in assay [2] was “not found to functionally increase 5-HT”.
The inhibition is how much of the control response was suppressed. The IC50 is the point on the concentration scale where inhibition reaches its midpoint. Higher therefore signals a need for much substance. The term Ki denotes a dissociation constant, usually derived from enzyme kinetics or from competition with a known ligand. Read a high Ki as a looser hold on the target. The term Emax denotes the size of the effect at its maximum, as opposed to the concentration needed. As for `CCOc1ccccc1OCC1CNCCO1` (centres unmarked) [Viloxazine, Viloxazine hydrochloride], the “antagonistic activity towards D3” value at dopaminergic receptor D3 is given as “either very weak (IC50 > 150 µM) or no antagonistic activity”. For the same molecule, the “agonistic activity towards D3” value at dopaminergic receptor D3 (concentrations up to 300 µM) was “no significant agonistic activity”. For the same molecule, the “calculated 5-HT2C occupancy at clinical doses” value with 5-HT2C [3] is on record as “higher than 80%”. The inhibition at 100 µM at 5-HT7 [4] is 52%. The IC50 is above 300 µM against 5-HT2A [5]; 68 µM on ADRβ2; 260 nM and ~300 nM against NET [19]; 93 µM against ADRα1B; 27 µM against 5-HT2B [31]. Besides, the inhibition at 10 µM on 5-HT7 [6] is above 50%; in assay [8], below 25%; at DA receptor D1, below 25%; in assay [9], below 25%; in assay [10] it was around 10%; on His receptor H1, below 25%. Besides, the inhibition at 10 µM was above 50% at 5-HT2B [12] (read-out: percent inhibition of the binding of a radiolabeled ligand); below 25% on His receptor H2; below 25% in assay [13]; around 10% on DAT; above 50% on 5-HT2C [17]; below 25% on DA receptor D2S. The inhibition at 10 µM was below 25% in assay [18]; below 25% at DA receptor D3; above 50% in assay [25]; above 50% on NET [28]; above 50% in [29]. For the same molecule, the “agonistic or antagonistic activity towards 5-HT1B” value on 5-HT1B [7] is given as “did not show any significant agonistic or antagonistic activity”. For the same molecule, the “antagonistic activity towards D1” value on dopaminergic receptor D1 was “either very weak (IC50 > 150 µM) or no antagonistic activity”. Also, on dopaminergic receptor D1 (concentrations up to 300 µM), the “agonistic activity towards D1” value was “no significant agonistic activity”. Moreover, the “agonistic or antagonistic activity towards 5-HT1D” value on 5-HT1D is on record as “did not show any significant agonistic or antagonistic activity”. In addition, the “agonistic or antagonistic activity towards 5-HT1A” value at 5-HT1A was “did not show any significant agonistic or antagonistic activity”. In assay [11], the “antagonistic activity towards M4” value is reported as “either very weak (IC50 > 150 µM) or no antagonistic activity”. For the same molecule, the “agonistic activity towards M4” value in [11] (concentrations up to 300 µM) is listed as “no significant agonistic activity”. The “binding to the GABA transporter (GAT)” value in the assay with GABA transporter (GAT) was “negligible binding”. This molecule also displayed a Ki at 5-HT2B [12] (Ki for 5-HT2B, constant of binding used for receptor occupancy) of 6.4 µM. Moreover, the “agonistic or antagonistic activity towards 5-HT6” value on 5-HT6 is “did not show any significant agonistic or antagonistic activity”. Besides, the “antagonistic activity towards M3” value in assay [14] was “either very weak (IC50 > 150 µM) or no antagonistic activity”. The “agonistic activity towards M3” value in assay [14] (concentrations up to 300 µM) is “no significant agonistic activity”. Moreover, the “agonistic activity at 5-HT7” value at 5-HT7 [15] is listed as “no agonistic activity”. In addition, the “change in extracellular level of ACh” value in assay [16] is “No significant changes”. Besides, the “change in extracellular level of GABA” value in [16] is on record as “No significant changes”. Besides, the “change in extracellular level of Glu” value in assay [16] is recorded as “No significant changes”. In assay [16], the “change in extracellular level of His” value is listed as “No significant changes”. Besides, the “percent inhibition of the binding of a radiolabeled ligand” value in the assay with 5-HT1B [20] is above 50%. Moreover, the “antagonistic activity towards M1” value in assay [21] is “either very weak (IC50 > 150 µM) or no antagonistic activity”. Further, the “agonistic activity towards M1” value in assay [21] (concentrations up to 300 µM) is listed as “no significant agonistic activity”. The Emax at 5-HT2C [22] is 78.6%. In addition, on ADRβ1, the “agonistic or antagonistic activity towards ADRβ1” value is reported as “either very weak (IC50 > 150 µM) or no significant agonistic or antagonistic activity”. For the same molecule, the “agonistic or antagonistic activity towards ADRα2B” value at ADRα2B is listed as “either very weak (IC50 > 150 µM) or no significant agonistic or antagonistic activity”. For the same molecule, the “binding to the choline transporter (CHT-1)” value in [23] is listed as “negligible binding”. Also, on histaminic receptor H1, the “antagonistic activity towards H1” value is “either very weak (IC50 > 150 µM) or no antagonistic activity”. For the same molecule, the “agonistic activity towards H1” value on histaminic receptor H1 (concentrations up to 300 µM) was “no significant agonistic activity”. For the same molecule, in the assay on 5-HT2B [24], the “calculated 5-HT2B occupancy at clinical doses” value was “higher than 80%”. Moreover, in assay [26], the “antagonistic activity towards D2S” value is on record as “either very weak (IC50 > 150 µM) or no antagonistic activity”. Further, the “agonistic activity towards D2S” value in [26] (concentrations up to 300 µM) is recorded as “no significant agonistic activity”. Besides, at 5-HT2A [27], the “agonistic effect at 5-HT2A” value is “no agonistic effect”. On ADRα2A, the “agonistic or antagonistic activity towards ADRα2A” value is given as “either very weak (IC50 > 150 µM) or no significant agonistic or antagonistic activity”. For the same molecule, on ADRα1A, the “agonistic or antagonistic activity towards ADRα1A” value is “either very weak (IC50 > 150 µM) or no significant agonistic or antagonistic activity”. Moreover, on SERT [30], the “binding to SERT” value is “negligible binding”. Besides, at ADRα2C, the “agonistic or antagonistic activity towards ADRα2C” value is recorded as “either very weak (IC50 > 150 µM) or no significant agonistic or antagonistic activity”.
Turning to `C[C@H](N)Cc1ccccc1` [d-amphetamine], the “increase of DA from the baseline level in the striatum” value with DA in the striatum is reported as 700%.
In the case of `C[C@@H](N)Cc1ccccc1` [l-amphetamine], the “increase of DA from the baseline level in the striatum” value in the assay on DA in the striatum was 1,200%.
